GI50, IC50 and AC50 data for 8 compounds are collected here from patent US20250332173A1, “COMPOUNDS AND METHODS FOR MODULATING NUCLEIC ACID SPLICING” (REMIX THERAPEUTICS INC., priority 2021, published 2025).

Read-outs that look alike come from different tables or passages of the source.

The test system of experiment [1] is K562 (human chronic myelogenous leukemia) cells. The experiment is described as follows: Cell Titer Glo 2.0 cell viability assay. The following applies: Homo sapiens, K562, 72 h, K562 cells, 72 hours, Cell Titer Glo 2.0; read-out: K562 GI50. Type of experiment: cell-based.
A further experiment relates to MYB mRNA. The experiment is described as follows: RT-qPCR splicing assay, MYB canonical junction (CJ) and alternative junction (AJ) mRNA. Type of experiment: cell-based, human. The following applies: Homo sapiens; for AC50: increase in MYB alternative junction (AJ) mRNA, read-out: MYB AJ AC50. Put shortly: (§1)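 A673 or K562 cells were treated for 24 h at 37 °C with an 11-point 3-fold compound dilution series (top final concentration 10 uM, DMSO ≤0.25%). After lysis, one-step TaqMan RT-qPCR quantified junction transcripts, normalized to PPIA for A673 or to GAPDH/GUSB for K562.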
A general note: Quantitative PCR measures a nucleic acid by following its amplification.

The test system of the next experiment is HTT mRNA. Briefly: RT-qPCR splicing assay, HTT canonical junction (CJ) and alternative junction (AJ) mRNA. Type of experiment: cell-based, human. The following applies: Homo sapiens; for AC50: increase in HTT alternative junction (AJ) mRNA, read-out: HTT AJ AC50. The method, boiled down: as §1
The subject of another experiment is Target C. The experiment is described as follows: RT-qPCR splicing assay panel, Target C canonical junction (CJ) mRNA. Type of experiment: cell-based, human. The following applies: Homo sapiens; Table 5 panel; canonical junction qPCR; compound concentration having 50% response in CJ decrease; read-out: Target C IC50 (decrease in CJ mRNA levels). Put shortly:
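Canonical-junction transcript levels in compound-treated A673 or K562 cells (24 h, up to 10 uM final) were determined from lysates by RT-qPCR with housekeeping-gene normalization.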

Setting [2] is: Table 5 panel, canonical junction qPCR, compound concentration having 50% response in CJ decrease, read-out: MYB IC50 (decrease in CJ mRNA levels).
Setting [3] is: decrease in MYB canonical junction (CJ) mRNA, RT-qPCR, read-out: MYB CJ IC50.
[4] abbreviates: decrease in HTT canonical junction (CJ) mRNA, RT-qPCR, read-out: HTT CJ IC50.
Setting [5] is: Table 5 panel, canonical junction qPCR, compound concentration having 50% response in CJ decrease, read-out: HTT IC50 (decrease in CJ mRNA levels).

For orientation: GI50 means the concentration giving 50% growth inhibition. As a reminder, the IC50 is the concentration needed to halve the response being measured. What is called AC50 is the midpoint of the concentration-response curve, whichever way the signal moves. Consider `Cc1cn2cc(-c3cc(F)c4c(=O)n(C5CCCNCC5)cnc4c3)cc(F)c2n1` (stereo not shown) [Compound 353, 3-(azepan-4-yl)-5-fluoro-7-{8-fluoro-2-methylimidazo[1,2-a]pyridin-6-yl}quinazolin-4-one], for which the GI50 in experiment [1] is 0.1 to 1 µM. Besides, the IC50 in the experiment on MYB mRNA (setting [2]) was in the range of 0.1 to 1 µM; in the experiment on MYB mRNA (setting [3]) it was 0.1 to 1 µM; in the experiment on HTT mRNA (setting [4]), 0.1 to 1 µM; in the experiment with HTT mRNA (setting [5]), 0.1 to 1 µM; in the experiment on Target C, 1 to 10 µM. Also, the AC50 in the experiment with MYB mRNA (RT-qPCR) and in the experiment on HTT mRNA (RT-qPCR) was 0.1 to 1 µM in each case.
In the case of `Cc1ncc(-c2ccc3c(=O)n(C4CCNCC4)cnc3c2)cn1` [Compound 354, 7-(2-methylpyrimidin-5-yl)-3-(piperidin-4-yl)quinazolin-4(3H)-one], the GI50 in experiment [1] lay in the range of 1 to 10 µM. Further, the IC50 in the experiment on MYB mRNA (setting [2]), with MYB mRNA (setting [3]), with HTT mRNA (setting [4]), in the experiment on HTT mRNA (setting [5]) and in the experiment on Target C was 1 to 10 µM each time. Also, the AC50 in the experiment on MYB mRNA (RT-qPCR) and in the experiment on HTT mRNA (RT-qPCR) was 1 to 10 µM throughout.
In the case of `Cc1cn2nc(-c3cc(C)c4c(=O)n(C5CCNCC5)cnc4c3)cc(C)c2n1` [Compound 355], the GI50 in experiment [1] fell in the range of 0.1 to 1 µM. Also, the IC50 is under 0.1 µM in the experiment with MYB mRNA (setting [2]); under 0.1 µM in the experiment with MYB mRNA (setting [3]); under 0.1 µM in the experiment on HTT mRNA (setting [4]); 0.1 to 1 µM in the experiment with HTT mRNA (setting [5]); 0.1 to 1 µM with Target C. Besides, the AC50 is under 0.1 µM with MYB mRNA (RT-qPCR) and 0.1 to 1 µM with HTT mRNA (RT-qPCR).
For the compound `Cc1cn2nc(-c3cc(F)c4c(=O)n([C@@H]5CCNC6(CC6)C5)cnc4c3)cc(C)c2n1` [Compound 356], the GI50 in experiment [1] was 0.1 to 1 µM. In addition, the IC50 is 0.1 to 1 µM with MYB mRNA (setting [2]); under 0.1 µM with MYB mRNA (setting [3]); under 0.1 µM in the experiment with HTT mRNA (setting [4]); 0.1 to 1 µM with HTT mRNA (setting [5]); 0.1 to 1 µM with Target C. Besides, the AC50 in the experiment with MYB mRNA (RT-qPCR) and in the experiment with HTT mRNA (RT-qPCR) was 0.1 to 1 µM in each case.
For `CNc1cc(-c2cc(F)c3nc(C)cn3c2)cc2ncn(C3CCNCC3)c(=O)c12` [Compound 358, 7-{8-fluoro-2-methylimidazo[1,2-a]pyridine-6-yl}-5-(methylamino)-3-(piperidin-4-yl)quinazolin-4-one], the GI50 in experiment [1] fell in the range of 1 to 10 µM. The IC50 with MYB mRNA (setting [2]) was 1 to 10 µM; in the experiment on MYB mRNA (setting [3]), 1 to 10 µM; in the experiment with HTT mRNA (setting [4]) it was over 10 µM; in the experiment on HTT mRNA (setting [5]), 1 to 10 µM; in the experiment with Target C it was over 10 µM. For the same compound, the AC50 in the experiment with MYB mRNA (RT-qPCR) and in the experiment with HTT mRNA (RT-qPCR) was 1 to 10 µM in each case.
Turning to `CNc1cc(-c2cc(C)c3nc(C)cn3n2)cc2ncn(C3CCNCC3)c(=O)c12` [Compound 359, 7-{2,8-dimethylimidazo[1,2-b]pyridazin-6-yl}-5-(methylamino)-3-(piperidin-4-yl)quinazolin-4-one], the GI50 in experiment [1] lay in the range of 0.1 to 1 µM. Besides, the IC50 with MYB mRNA (setting [2]) was under 0.1 µM; with MYB mRNA (setting [3]) it was 1 to 10 µM; with HTT mRNA (setting [4]), 1 to 10 µM; with HTT mRNA (setting [5]) it was 1 to 10 µM; with Target C it was over 10 µM. In addition, the values for the AC50 in the experiment with MYB mRNA (RT-qPCR) and in the experiment on HTT mRNA (RT-qPCR) were under 0.1 µM and 1 to 10 µM, respectively.
As to `CNc1cc(-c2cn3cc(C)nc3c(C)n2)cc2ncn(C3CCNCC3)c(=O)c12` [Compound 360, 7-{2,8-dimethylimidazo[1,2-a]pyrazine-6-yl}-5-(methylamino)-3-(piperidin-4-yl)quinazolin-4-one], the GI50 in experiment [1] was 1 to 10 µM. Moreover, the IC50 in the experiment on MYB mRNA (setting [2]) is 1 to 10 µM; in the experiment on MYB mRNA (setting [3]), over 10 µM; in the experiment with HTT mRNA (setting [4]), over 10 µM; with HTT mRNA (setting [5]), over 10 µM; with Target C it was over 10 µM. Also, the AC50 with MYB mRNA (RT-qPCR) was 1 to 10 µM; in the experiment with HTT mRNA (RT-qPCR), over 10 µM.
As for `Cc1cc(-c2cc(F)c3c(=O)n(C4CCNC5(CC5)C4)cnc3c2)nc2cn(C)nc12` (stereo not shown) [Compound 361, 3-{4-azaspiro[2.5]octan-7-yl}-7-{2,7-dimethylpyrazolo[4,3-b]pyridin-5-yl}-5-fluoroquinazolin-4-one], in experiment [1], the GI50 lay in the range of 0.1 to 1 µM. The IC50 was under 0.1 µM in the experiment on MYB mRNA (setting [2]); under 0.1 µM with MYB mRNA (setting [3]); under 0.1 µM in the experiment on HTT mRNA (setting [4]); under 0.1 µM with HTT mRNA (setting [5]); 0.1 to 1 µM in the experiment with Target C. The AC50 in the experiment with MYB mRNA (RT-qPCR) and with HTT mRNA (RT-qPCR) was under 0.1 µM each time.
